# Source: EP1660440B1, “ACYLOXYALKYL CARBAMATE PRODRUGS, METHODS OF SYNTHESIS AND USE” (priority 2003, dated 2005)
# Read-outs that look alike come from different tables or passages of the source.
# Columns and labels:
# [1] = aqueous buffer, 1 h
# Method: (§1) The stabilities of prodrugs were evaluated in one or more in vitro systems using a variety of tissue preparations following methods known in the art. The chemical stability of prodrugs in aqueous buffers at pH's of 2.0, 7.4 and 8.0 were also measured. […] Each preparation was incubated with test compound at 37°C for one hour. Aliquots (50 µL) were removed at 0, 30, and 60 min and quenched with 0.1 % trifluoroacetic acid in acetonitrile.
# [2] = human, s9, 1 h, 5 µM
# Method: For stability studies, prodrug (5 µM) was incubated in Caco-2 homogenate S9 fraction (0.5 mg protein per mL) for 60 min at 37°C. Concentrations of intact prodrug and released baclofen were determined at zero time and 60 minutes using LC/MS/MS.
# [3] = rat, s9, 1 h, 2 µM
# Method: as §1
# [4] = tested on: Pancreatin; assay: Pancreatin stability; assay type: in vitro ADME, porcine; conditions: 1 % (w/v) pancreatin, 5 µM, pH 7.5, 37 °C, after 60 min
# Method: Pancreatin Stability: Stability studies were conducted by incubating prodrug (5 µM) with 1 % (w/v) pancreatin (Sigma, P-1625, from porcine pancreas) in 0.025 M Tris buffer containing 0.5 M NaCl (pH 7.5) at 37 °C for 60 min. The reaction was stopped by addition of 2 volumes of methanol. After centrifugation at 14,000 rpm for 10 min, the supernatant was removed and analyzed by LC/MS/MS.
# [5] = human, s9, 1 h, 2 µM
# [6] = human, plasma, 1 h, 2 µM
# [7] = rat, plasma, 1 h, 2 µM
smiles,measurement,setting,value
"CC(=O)OC(OC(=O)NC[C@H](CC(=O)[O-])c1ccc(Cl)cc1)C(C)C.[Na+] (stereo partly drawn) [(23), Sodium 4-[(1-Acetoxylsobutoxy)carbonylamino]1-(3R)-(4-chlorophenyl)-butanoate]",% of Baclofen Released,[1]; pH 2,0%
same,% of Prodrug Remaining,[1]; pH 2,107%
same,% of Baclofen Released,[1]; pH 7.4,1%
same,% of Prodrug Remaining,[1]; pH 7.4,89%
same,% of Baclofen Released,[1]; pH 8,2%
same,% of Prodrug Remaining,[1]; pH 8,90%
same,% of Baclofen Released,[2],87%
same,% of Prodrug Remaining,[2],15%
same,% of Baclofen Released,[3],107%
same,% of Prodrug Remaining,[3],3%
same,% of Baclofen Released,[4],24%
same,% of Prodrug Remaining,[4],82%
same,% of Baclofen Released,[5],105%
same,% of Prodrug Remaining,[5],4%
same,% of Baclofen Released,[6],3%
same,% of Prodrug Remaining,[6],96%
same,% of Baclofen Released,[7],93%
same,% of Prodrug Remaining,[7],11%
"CC(C)C(=O)OC(OC(=O)NC[C@H](CC(=O)[O-])c1ccc(Cl)cc1)C(C)C.[Na+] (stereo partly drawn) [(25), Sodium 4-[(1-Isobutanoyloxyisobutoxy)carbonylamino]-(3R)-(4-chlorophenyl)-butanoate]",% of Baclofen Released,[1]; pH 2,0%
same,% of Prodrug Remaining,[1]; pH 2,101%
same,% of Baclofen Released,[1]; pH 7.4,0%
same,% of Prodrug Remaining,[1]; pH 7.4,100%
same,% of Baclofen Released,[1]; pH 8,0%
same,% of Prodrug Remaining,[1]; pH 8,100%
same,% of Baclofen Released,[2],95%
same,% of Prodrug Remaining,[2],2%
same,% of Baclofen Released,[3],98%
same,% of Prodrug Remaining,[3],1%
same,% of Baclofen Released,[4],84%
same,% of Prodrug Remaining,[4],22%
same,% of Baclofen Released,[5],91%
same,% of Prodrug Remaining,[5],4%
same,% of Baclofen Released,[6],4%
same,% of Prodrug Remaining,[6],93%
same,% of Baclofen Released,[7],96%
same,% of Prodrug Remaining,[7],5%
"CC(OC(=O)NC[C@H](CC(=O)[O-])c1ccc(Cl)cc1)OC(=O)C(C)C.[Na+] (stereo partly drawn) [(33), Sodium 4-[(1-Isobutanoyloxyethoxy)carbonylamino]-(3R)-(4-chlorophenyl)-butanoate]",% of Baclofen Released,[1]; pH 2,0%
same,% of Prodrug Remaining,[1]; pH 2,100%
same,% of Baclofen Released,[1]; pH 7.4,0%
same,% of Prodrug Remaining,[1]; pH 7.4,72%
same,% of Baclofen Released,[1]; pH 8,0%
same,% of Prodrug Remaining,[1]; pH 8,101%
same,% of Baclofen Released,[2],95%
same,% of Prodrug Remaining,[2],3%
same,% of Baclofen Released,[3],101%
same,% of Prodrug Remaining,[3],4%
same,% of Baclofen Released,[4],52%
same,% of Prodrug Remaining,[4],46%
same,% of Baclofen Released,[5],101%
same,% of Prodrug Remaining,[5],3%
same,% of Baclofen Released,[6],4%
same,% of Prodrug Remaining,[6],96%
same,% of Baclofen Released,[7],30%
same,% of Prodrug Remaining,[7],73%
"CC(C)C(=O)O[C@H](C)OC(=O)NC[C@H](CC(=O)[O-])c1ccc(Cl)cc1.[Na+] [(34), Sodium 4-{[(1S)-Isobutanoyloxyethoxy]-carbonylamino}-(3R)-(4-chlorophenyl) -butanoate]",% of Baclofen Released,[1]; pH 2,0%
same,% of Prodrug Remaining,[1]; pH 2,100%
same,% of Baclofen Released,[1]; pH 7.4,0%
same,% of Prodrug Remaining,[1]; pH 7.4,100%
same,% of Baclofen Released,[1]; pH 8,0%
same,% of Prodrug Remaining,[1]; pH 8,100%
same,% of Baclofen Released,[2],100%
same,% of Prodrug Remaining,[2],2%
same,% of Baclofen Released,[3],100%
same,% of Prodrug Remaining,[3],1%
same,% of Baclofen Released,[4],18%
same,% of Prodrug Remaining,[4],81%
same,% of Baclofen Released,[5],100%
same,% of Prodrug Remaining,[5],3%
same,% of Baclofen Released,[6],2%
same,% of Prodrug Remaining,[6],90%
same,% of Baclofen Released,[7],18%
same,% of Prodrug Remaining,[7],78%
"O=C([O-])C[C@@H](CNC(=O)OCOC(=O)c1cccs1)c1ccc(Cl)cc1.[Na+] [(57), Sodium 4-[(2-Thienylcarbonyloxymethoxy)carbonylamino]-(3R)-(4-chlorophenyl)-butan oate]",% of Baclofen Released,[1]; pH 2,0%
same,% of Prodrug Remaining,[1]; pH 2,100%
same,% of Baclofen Released,[1]; pH 7.4,0%
same,% of Prodrug Remaining,[1]; pH 7.4,100%
same,% of Baclofen Released,[1]; pH 8,0%
same,% of Prodrug Remaining,[1]; pH 8,100%
same,% of Baclofen Released,[2],104%
same,% of Prodrug Remaining,[2],2%
same,% of Baclofen Released,[3],78%
same,% of Prodrug Remaining,[3],2%
same,% of Baclofen Released,[4],75%
same,% of Prodrug Remaining,[4],12%
same,% of Baclofen Released,[5],86%
same,% of Prodrug Remaining,[5],1%
same,% of Baclofen Released,[6],14%
same,% of Prodrug Remaining,[6],73%
same,% of Baclofen Released,[7],10%
same,% of Prodrug Remaining,[7],82%
"CC(C)CC(=O)OCOC(=O)NC[C@H](CC(=O)[O-])c1ccc(Cl)cc1.[Na+] [(59), Sodium 4-[(3-Methylbutanoyloxymethoxy)carbonylamino]-(3R)-(4-chlorophenyl)-butano ate]",% of Baclofen Released,[1]; pH 2,0%
same,% of Prodrug Remaining,[1]; pH 2,103%
same,% of Baclofen Released,[1]; pH 7.4,1%
same,% of Prodrug Remaining,[1]; pH 7.4,103%
same,% of Baclofen Released,[1]; pH 8,2%
same,% of Prodrug Remaining,[1]; pH 8,97%
same,% of Baclofen Released,[2],104%
same,% of Prodrug Remaining,[2],3%
same,% of Baclofen Released,[3],85%
same,% of Prodrug Remaining,[3],2%
same,% of Baclofen Released,[4],50%
same,% of Prodrug Remaining,[4],46%
same,% of Baclofen Released,[5],82%
same,% of Prodrug Remaining,[5],1%
same,% of Baclofen Released,[6],11%
same,% of Prodrug Remaining,[6],77%
same,% of Baclofen Released,[7],85%
same,% of Prodrug Remaining,[7],2%
"CC(C)C(=O)OC(OC(=O)NC[C@H](CC(=O)[O-])c1ccc(Cl)cc1)C1CCCCC1.[Na+] (stereo partly drawn) [(84), Sodium 4-[(1-Isobutanoyloxy-1-cyclohexylmethoxy)carbonylamino]-(3R)-(4-chlorophenyl)-butanoate]",% of Baclofen Released,[1]; pH 2,0%
same,% of Prodrug Remaining,[1]; pH 2,85%
same,% of Baclofen Released,[1]; pH 7.4,0%
same,% of Prodrug Remaining,[1]; pH 7.4,84%
same,% of Baclofen Released,[1]; pH 8,1%
same,% of Prodrug Remaining,[1]; pH 8,94%
same,% of Baclofen Released,[2],76%
same,% of Prodrug Remaining,[2],13%
same,% of Baclofen Released,[3],91%
same,% of Prodrug Remaining,[3],4%
same,% of Baclofen Released,[4],40%
same,% of Prodrug Remaining,[4],47%
same,% of Baclofen Released,[5],82%
same,% of Prodrug Remaining,[5],2%
same,% of Baclofen Released,[6],4%
same,% of Prodrug Remaining,[6],89%
same,% of Baclofen Released,[7],11%
same,% of Prodrug Remaining,[7],91%
"CCCC(=O)OC(OC(=O)NC[C@H](CC(=O)[O-])c1ccc(Cl)cc1)C1CCCCC1.[Na+] (stereo partly drawn) [(85), Sodium 4-[(1-Butanoyloxy-1-cyclohexylmethoxy)carbonylamino]-(3R)-(4-chlorophenyl)-butanoate]",% of Baclofen Released,[1]; pH 2,0%
same,% of Prodrug Remaining,[1]; pH 2,82%
same,% of Baclofen Released,[1]; pH 7.4,0%
same,% of Prodrug Remaining,[1]; pH 7.4,92%
same,% of Baclofen Released,[1]; pH 8,0%
same,% of Prodrug Remaining,[1]; pH 8,93%
same,% of Baclofen Released,[2],82%
same,% of Prodrug Remaining,[2],4%
same,% of Baclofen Released,[3],91%
same,% of Prodrug Remaining,[3],2%
same,% of Baclofen Released,[4],64%
same,% of Prodrug Remaining,[4],15%
same,% of Baclofen Released,[5],84%
same,% of Prodrug Remaining,[5],2%
same,% of Baclofen Released,[6],4%
same,% of Prodrug Remaining,[6],95%
same,% of Baclofen Released,[7],12%
same,% of Prodrug Remaining,[7],82%
